Measured values: patent US9321750B2, “ROR modulators and their uses” (INNOV17 LLC, priority 2012, dated 2016)
Like-named read-outs stand apart in the source and are kept apart here.

Columns and labels:
[1] = biological target: RORα LBD (Homo sapiens (Human), UniProt P35398); experiment: TR-FRET co-activator D22 interaction with RORα LBD; format: biochemical
Source text: The Time-Resolved Fluorescence Resonance Energy Transfer (TR-FRET) assay kit (Life Technologies) was used to measure compound efficacy to disrupt or enhance ligand-mediated interaction of the co-activator and co-repressor peptides with the purified GST-tagged (i) RORγ LBD or (ii) […]. The RORγ LBD and RORα LBD each have a basal level of interaction with the co-activator D22 or co-repressor NCoR1-D2 in the absence of ligand, thus it is possible to identify compounds that inhibit or induce RORγ and/or RORα co-activator/co-repressor interactions, thus determining RORα, RORγ, or RORα/RORγ compound selectivity. The assay was performed as per manufacturer's instructions and TR-FRET was assessed 2 and 20 hours post-assay initiation. Compounds were identified to (i) have no impact on either co-activator displacement or […] from the assessed LBD (ii) promote co-activator displacement from the assessed LBD (iii) promote co-repressor recruitment to the assessed LBD or (iv) concurrently promote co-activator displacement from the assessed LBD and co-repressor recruitment to the assessed LBD.

[2] = test system: FOXP3; experiment: Real-time qRT-PCR in TH17 cells: FOXP3 gene expression; format: cell-based, human; set-up: key: A: No change in gene expression observed relative to DMSO treated Th17 cells; B: Decreased gene expression observed relative to DMSO treated Th17 cells; C: Increased gene expression observed relative to DMSO treated Th17 cells
Method: (§1) Peripheral blood mononuclear cells (PBMCs) were sourced from freshly prepared leukocyte enriched plasma (buffy coat) from healthy volunteers from which PBMCs were isolated by density gradient centrifugation using Ficoll-Paque™ PLUS (GE Healthcare). Naïve CD4+ T cells were isolated using the Naïve CD4+ T cell Isolation Kit II (Miltenyi Biotec) as per manufacturer's instructions. CD4+ T cells were plated at 5×10^4 cells/well in 96 well plates pre-coated with immobilized human (h)-αCD3 antibody (eBioscience) then differentiated to TH17 cells using h-αCD28, h-αIFNγ, h-αIL4, h-IL6, h-IL23, h-IL1β, h-TGFβ1 (eBioscience) and maintained in a cell culture incubator at 37° C. with 5% CO2 in TexMACS Medium (Miltenyi Biotec) supplemented with 1% Penicillin/Streptomycin (Lonza) over 5 days.
(§2) RNA was isolated from TH17 cells and cDNA was synthesized using the Verso cDNA kit (Thermo Scientific) as per manufacturer's instructions. IL-17A, IL-17F, IL-21, IL-22, G-CSF, IL-23R and FOXP3 gene expression were determined for compound treated and untreated TH17 cell samples using Solaris qPCR Gene expression assays (Thermo Scientific) with an iCycler iQ Real-Time PCR Detection System (Bio-Rad). Individual gene expression was normalized to a panel of six reference genes (ACTB, TBP, HPRT1, PGK1, TFRC and PPIA) (Thermo Scientific) and analyzed by REST 2009 (Qiagen) in accordance to MIQE guidelines (Bustin et al. (2009) Clin. Chem, 55:611-622). The effects of compounds on TH17 cytokine mRNA levels are presented as fold change in gene expression of compound treated TH17 cells relative to DMSO treated cells in the table below.

[3] = test system: IL-22; experiment: TH17 cytokine inhibition as measured by ELISA: IL-22; format: cell-based; details: 120 h; human TH17 cells, 5 days differentiation, ELISA of supernatant
Method: as §1
(§3) Human CD4+ T cells were differentiated to TH17 cells as described in the presence or absence of various concentrations of compounds in a final concentration of 0.1% DMSO in TexMACS medium. Supernatants were collected and stored at −20° C. until they were to be assayed for IL-17A, IL-17F, IL-17AF, IL-21 and/or IL-22 levels as determined by Ready-Set-Go ELISA kits (eBioscience) as per manufacturer's instructions. Endpoint absorbance was read at 450 nm and 570 nm according to manufacturer's instructions (eBioscience) using a microplate reader (Perkin Elmer). The percentage of cytokine inhibition was calculated with reference to DMSO treated cells and the IC50s were determined by GraphPad Prism software and presented in the table below.

[4] = test system: IL-23R; experiment: Real-time qRT-PCR in TH17 cells: IL-23R gene expression; format: cell-based, human; set-up: key: A: No change in gene expression observed relative to DMSO treated Th17 cells; B: Decreased gene expression observed relative to DMSO treated Th17 cells; C: Increased gene expression observed relative to DMSO treated Th17 cells
Method: as §1, §2

[5] = test system: TH17 cells; experiment: TH17 cellular proliferation (Prestoblue); format: cell-based; details: Homo sapiens, 120 h; 3 μM compound, after 5 day TH17 differentiation, relative to DMSO treated TH17 cells; read-out: % change in TH17 cell number
Method: as §1
Cellular proliferation was assessed in the presence or absence of 3 μM compound using Prestoblue® Cell Viability Reagent (Life Technologies) as per manufacturer's instructions using absorbance as the output measured by a microplate reader (Perkin Elmer) after 30 minutes of incubation of cells and reagent. A standard curve developed by plotting varying cell numbers versus absorbance was used to assess differences in cellular proliferation between compound treated or untreated cells after the 5 day TH17 differentiation period.

[6] = test system: IL-17AF; experiment: TH17 cytokine inhibition as measured by ELISA: IL-17AF; format: cell-based; details: 120 h; human TH17 cells, 5 days differentiation, ELISA of supernatant
Method: as §1, §3

[7] = test system: IL-21; experiment: TH17 cytokine inhibition as measured by ELISA: IL-21; format: cell-based; details: 120 h; human TH17 cells, 5 days differentiation, ELISA of supernatant
Source text: Peripheral blood mononuclear cells (PBMCs) were sourced from freshly prepared leukocyte enriched plasma (buffy coat) from healthy volunteers from which PBMCs were isolated by density gradient centrifugation using Ficoll-Paque™ PLUS (GE Healthcare). Naïve CD4+ T cells were isolated using the Naïve CD4+ T cell Isolation Kit II (Miltenyi Biotec) as per manufacturer's instructions. […]
as §3

[8] = 2 hr, read-out: RORα EC50 D22 co-activator displacement 2 hr
[9] = 20 hr, read-out: RORα EC50 D22 co-activator displacement 20 hr

Chain of RORα LBD (P35398 272-510): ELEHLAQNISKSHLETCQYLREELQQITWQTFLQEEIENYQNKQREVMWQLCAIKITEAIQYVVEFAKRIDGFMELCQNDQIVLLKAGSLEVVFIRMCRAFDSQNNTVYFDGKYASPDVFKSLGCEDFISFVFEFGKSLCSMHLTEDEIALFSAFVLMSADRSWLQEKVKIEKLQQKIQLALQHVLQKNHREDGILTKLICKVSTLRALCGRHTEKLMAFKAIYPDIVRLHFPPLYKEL

IC50 [7] | Compound | EC50 [1, 8] | EC50 [1, 9] | Fold change in mRNA level of compound treated TH17 cells relative to DMSO treated cells FOXP3 [2] | IC50 [3] | Fold change in mRNA level of compound treated TH17 cells relative to DMSO treated cells IL-23R [4] | inhibition at 3 µM [5] | IC50 [6]
 | CS(=O)(=O)Nc1ccc2c(c1)CCCN2Cc1ccc(C(O)(C(F)(F)F)C(F)(F)F)cc1 [Example 5, N-(1-(4-(1,1,1,3,3,3-hexafluoro-2-hydroxypropan-2-yl)benzyl)-1,2,3,4-tetrahydroquinolin-6-yl)methanesulfonamide] | < 30 µM | < 30 µM | C | < 10 µM | B | ≤ 50% | 
 | CC(=O)Nc1ccc2c(c1)CCCN2Cc1ccc(C(O)(C(F)(F)F)C(F)(F)F)cc1 [Example 2, N-(1-(4-(1,1,1,3,3,3-hexafluoro-2-hydroxypropan-2-yl)benzyl)-1,2,3,4-tetrahydroquinolin-6-yl)acetamide] | < 30 µM | > 30 µM | A | < 10 µM | A | ≤ 50% | < 10 µM
< 10 µM | CC(=O)Nc1ccc2c(c1)CCN2Cc1ccc(C(O)(C(F)(F)F)C(F)(F)F)cc1 [Example 4, N-(1-(4-(1,1,1,3,3,3-hexafluoro-2-hydroxypropan-2-yl)benzyl)indolin-5-yl)acetamide] | > 30 µM | > 30 µM | C | < 10 µM | B | > 50% | < 10 µM
